Assay results published in ChEMBL document CHEMBL2073917, “Polymethoxylated flavones in orange juice are inhibitors of P-glycoprotein but not cytochrome P450 3A4” (J Pharmacol Exp Ther, 2000).

Key:
Type in all cases: functional, cell-based
Settings in all cases: pig, llc-pk1, 20 µM
[1] = target: T1, ATP-dependent translocase ABCB1 (Homo sapiens, UniProt P08183); assay: TP_TRANSPORTER: increase in Vinblastine uptake (Vinblastine: 0.02 uM, HMF: 20 uM) in MDR1-expressing LLC-PK1 cells
[2] = target: T1, ATP-dependent translocase ABCB1; assay: TP_TRANSPORTER: increase in Vinblastine uptake (Vinblastine: 0.02 uM, Nobiletin: 20 uM) in MDR1-expressing LLC-PK1 cells
[3] = target: T1, ATP-dependent translocase ABCB1; assay: TP_TRANSPORTER: increase in Vinblastine uptake (Vinblastine: 0.02 uM, Tangeretin: 20 uM) in MDR1-expressing LLC-PK1 cells

T1 sequence (P08183 whole entry): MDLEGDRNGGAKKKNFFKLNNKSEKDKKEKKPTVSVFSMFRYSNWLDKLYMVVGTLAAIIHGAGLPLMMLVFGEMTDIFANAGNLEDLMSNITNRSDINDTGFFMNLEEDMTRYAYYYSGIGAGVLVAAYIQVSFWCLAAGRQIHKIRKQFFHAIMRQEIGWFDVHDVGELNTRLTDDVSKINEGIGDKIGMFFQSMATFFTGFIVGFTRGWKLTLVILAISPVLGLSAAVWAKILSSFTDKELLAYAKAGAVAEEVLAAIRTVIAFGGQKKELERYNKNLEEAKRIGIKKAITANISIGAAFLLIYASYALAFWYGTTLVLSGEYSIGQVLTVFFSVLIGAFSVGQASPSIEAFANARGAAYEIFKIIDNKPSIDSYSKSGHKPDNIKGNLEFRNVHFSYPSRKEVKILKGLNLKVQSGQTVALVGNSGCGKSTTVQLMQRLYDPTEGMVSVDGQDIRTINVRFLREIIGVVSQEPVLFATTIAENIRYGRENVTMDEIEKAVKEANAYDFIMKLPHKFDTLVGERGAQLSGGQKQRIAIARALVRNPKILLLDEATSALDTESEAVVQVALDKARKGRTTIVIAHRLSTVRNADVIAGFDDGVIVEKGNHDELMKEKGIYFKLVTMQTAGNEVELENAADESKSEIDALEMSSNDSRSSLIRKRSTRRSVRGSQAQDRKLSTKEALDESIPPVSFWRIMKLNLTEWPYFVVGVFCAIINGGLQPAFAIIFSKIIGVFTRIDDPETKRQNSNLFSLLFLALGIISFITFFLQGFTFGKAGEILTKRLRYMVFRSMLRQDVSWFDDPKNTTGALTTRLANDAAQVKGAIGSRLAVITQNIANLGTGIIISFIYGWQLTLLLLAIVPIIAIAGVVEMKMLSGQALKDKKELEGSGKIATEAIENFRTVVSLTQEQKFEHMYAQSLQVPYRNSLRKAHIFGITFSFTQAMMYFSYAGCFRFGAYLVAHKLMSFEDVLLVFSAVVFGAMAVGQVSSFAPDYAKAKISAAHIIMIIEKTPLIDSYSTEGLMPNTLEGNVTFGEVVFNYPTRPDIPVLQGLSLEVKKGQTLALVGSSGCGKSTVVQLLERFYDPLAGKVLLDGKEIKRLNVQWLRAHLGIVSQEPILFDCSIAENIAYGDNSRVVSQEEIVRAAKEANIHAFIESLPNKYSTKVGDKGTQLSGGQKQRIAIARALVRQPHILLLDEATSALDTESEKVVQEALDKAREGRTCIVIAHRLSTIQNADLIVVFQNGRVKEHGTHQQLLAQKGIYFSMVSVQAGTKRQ

## COc1ccc(-c2oc3c(OC)c(OC)c(OC)c(OC)c3c(=O)c2OC)cc1OC [3,5,6,7,8,3',4'-HEPTAMETHOXYFLAVONE]
[1]
  Activity: 935%

## COc1ccc(-c2cc(=O)c3c(OC)c(OC)c(OC)c(OC)c3o2)cc1OC [NOBILETIN]
[2]
  Activity: 604%

## COc1ccc(-c2cc(=O)c3c(OC)c(OC)c(OC)c(OC)c3o2)cc1 [TANGERETIN]
[3]
  Activity: 175%
